Like-named read-outs stand apart in the source and are kept apart here. One block for each compound: values may come before it.
Legend:
ALK = biological target: T1, ALK (Homo sapiens, UniProt Q9UM73); assay: ALK Kinase Assay (ELISA/TRF, PLC-γ substrate); assay type: biochemical; settings: read-out: ALK Potency
T1 construct: host or cells: baculovirus expression system
Summary of the method: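 Time-resolved fluorescence ELISA using Eu-N1 PT66 antibody to detect phosphorylated PLC-γ (coated at 10 μg/mL). Enzyme at 30 ng/ml ALK; 15 min incubation, 37° C.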

JAK2 = biological target: T2, JAK2 (Homo sapiens, UniProt O60674); assay: Recombinant Human JAK2 Kinase Assay (TRF); assay type: biochemical; settings: read-out: JAK2 Potency
T2 construct: host or cells: baculovirus expression system
T2 sequence (O60674 whole entry): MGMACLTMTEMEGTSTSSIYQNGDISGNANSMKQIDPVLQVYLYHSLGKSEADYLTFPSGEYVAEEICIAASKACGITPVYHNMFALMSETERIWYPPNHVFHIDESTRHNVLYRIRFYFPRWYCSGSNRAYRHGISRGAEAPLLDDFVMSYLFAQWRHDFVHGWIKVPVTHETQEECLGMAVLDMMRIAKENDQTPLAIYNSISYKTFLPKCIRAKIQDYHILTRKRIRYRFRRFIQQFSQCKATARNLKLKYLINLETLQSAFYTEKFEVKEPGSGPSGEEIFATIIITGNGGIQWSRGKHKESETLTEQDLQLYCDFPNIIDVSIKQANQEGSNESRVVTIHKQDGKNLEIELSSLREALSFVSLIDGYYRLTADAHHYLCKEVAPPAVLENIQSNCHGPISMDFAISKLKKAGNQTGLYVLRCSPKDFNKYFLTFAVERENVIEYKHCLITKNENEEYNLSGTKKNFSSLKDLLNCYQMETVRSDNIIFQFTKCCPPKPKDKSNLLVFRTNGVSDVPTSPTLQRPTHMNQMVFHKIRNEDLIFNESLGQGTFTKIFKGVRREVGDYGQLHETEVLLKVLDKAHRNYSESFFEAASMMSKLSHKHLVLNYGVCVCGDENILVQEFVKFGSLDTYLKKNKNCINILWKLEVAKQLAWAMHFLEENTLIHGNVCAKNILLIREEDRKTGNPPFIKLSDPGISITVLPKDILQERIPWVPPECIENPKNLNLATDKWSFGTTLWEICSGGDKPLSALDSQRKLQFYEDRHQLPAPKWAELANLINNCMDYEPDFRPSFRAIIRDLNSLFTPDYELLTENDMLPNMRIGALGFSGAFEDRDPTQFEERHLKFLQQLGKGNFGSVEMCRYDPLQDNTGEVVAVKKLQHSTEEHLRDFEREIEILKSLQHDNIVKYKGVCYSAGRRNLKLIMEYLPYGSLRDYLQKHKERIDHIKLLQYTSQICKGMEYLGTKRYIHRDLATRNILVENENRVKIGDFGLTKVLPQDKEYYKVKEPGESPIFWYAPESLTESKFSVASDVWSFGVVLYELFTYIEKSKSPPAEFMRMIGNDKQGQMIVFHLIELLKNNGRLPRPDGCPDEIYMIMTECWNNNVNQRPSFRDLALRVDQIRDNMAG
Summary of the method: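 Europium-labelled PY100 antibody reported tyrosine phosphorylation of a Neutravidin-captured biotinyl 15-mer peptide by JAK2 (baculovirus-expressed, 15 ng/ml). Conditions: 20 mM HEPES pH 7.2, 0.2 μM ATP, 1 mM MnCl2, 0.1% BSA, DMSO 2.5% final, 20 min at room temperature.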

[1] = ALK kinase inhibition, 1 μM ATP
[2] = JAK2 kinase inhibition, 0.2 μM ATP

T1 sequence (Q9UM73 19-1620): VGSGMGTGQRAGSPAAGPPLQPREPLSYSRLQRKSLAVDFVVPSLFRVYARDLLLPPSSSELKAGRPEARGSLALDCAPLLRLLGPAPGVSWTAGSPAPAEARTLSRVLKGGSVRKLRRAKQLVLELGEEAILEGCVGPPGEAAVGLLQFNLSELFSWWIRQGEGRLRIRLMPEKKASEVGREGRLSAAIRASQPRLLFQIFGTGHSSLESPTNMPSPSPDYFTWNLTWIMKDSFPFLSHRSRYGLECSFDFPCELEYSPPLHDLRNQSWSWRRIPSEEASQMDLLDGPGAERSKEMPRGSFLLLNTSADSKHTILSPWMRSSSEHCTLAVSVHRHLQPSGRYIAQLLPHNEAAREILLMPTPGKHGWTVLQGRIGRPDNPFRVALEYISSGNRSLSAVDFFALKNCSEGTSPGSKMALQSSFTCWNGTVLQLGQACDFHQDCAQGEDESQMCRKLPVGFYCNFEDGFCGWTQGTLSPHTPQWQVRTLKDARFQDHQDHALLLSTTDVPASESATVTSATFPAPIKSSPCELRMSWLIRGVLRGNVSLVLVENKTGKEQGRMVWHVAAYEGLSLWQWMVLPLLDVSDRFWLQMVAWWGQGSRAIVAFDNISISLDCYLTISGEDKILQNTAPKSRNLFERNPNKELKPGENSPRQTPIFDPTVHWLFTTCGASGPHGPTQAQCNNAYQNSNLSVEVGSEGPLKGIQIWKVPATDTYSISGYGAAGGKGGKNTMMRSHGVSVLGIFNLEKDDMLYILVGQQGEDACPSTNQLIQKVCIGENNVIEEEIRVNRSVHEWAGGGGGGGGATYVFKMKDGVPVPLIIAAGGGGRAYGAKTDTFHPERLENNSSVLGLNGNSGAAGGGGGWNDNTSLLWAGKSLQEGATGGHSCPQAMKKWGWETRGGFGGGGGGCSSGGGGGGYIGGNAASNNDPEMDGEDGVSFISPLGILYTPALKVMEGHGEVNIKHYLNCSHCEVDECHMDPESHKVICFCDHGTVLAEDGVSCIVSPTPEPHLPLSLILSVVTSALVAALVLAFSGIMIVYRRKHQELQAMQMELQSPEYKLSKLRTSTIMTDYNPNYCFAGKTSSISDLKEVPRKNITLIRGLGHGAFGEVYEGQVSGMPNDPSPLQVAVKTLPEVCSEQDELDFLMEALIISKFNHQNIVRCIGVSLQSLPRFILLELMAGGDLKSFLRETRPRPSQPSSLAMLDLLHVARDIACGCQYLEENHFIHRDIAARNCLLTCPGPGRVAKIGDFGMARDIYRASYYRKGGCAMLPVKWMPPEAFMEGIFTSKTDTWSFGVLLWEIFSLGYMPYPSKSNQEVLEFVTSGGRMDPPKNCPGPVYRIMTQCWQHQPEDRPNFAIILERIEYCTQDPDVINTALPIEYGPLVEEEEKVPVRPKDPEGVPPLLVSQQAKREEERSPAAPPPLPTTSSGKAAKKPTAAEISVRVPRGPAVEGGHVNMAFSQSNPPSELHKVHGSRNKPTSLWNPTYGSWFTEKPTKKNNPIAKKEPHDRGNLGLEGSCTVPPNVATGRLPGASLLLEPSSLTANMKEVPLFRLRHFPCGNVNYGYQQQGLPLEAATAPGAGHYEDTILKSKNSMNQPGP

Structure (SMILES): N#CCCc1cccc(-c2ccc3cnc(Nc4ccc5c(c4)CCC(N4CCOCC4)CC5)nn23)c1 (stereo not shown) [Example 1148, 3-{3-[2-(7-Morpholin-4-yl-6,7,8,9-tetrahydro-5H-benzocyclohepten-2-ylamino)-pyrrolo[2,1-f][1,2,4]triazin-7-yl]-phenyl}-propionitrile]
- IC50 (ALK; [1]): < 100 nM
- IC50 (JAK2; [2]): < 100 nM

Structure (SMILES): CN1CCN(CCn2cc(Nc3ncc4ccc(-c5cnn(C)c5)n4n3)cn2)CC1 [Example 1213, {1-[2-(4-Methyl-piperazin-1-yl)-ethyl]-1H-pyrazol-4-yl}-[7-(1-methyl-1H-pyrazol-4-yl)-pyrrolo[2,1-f][1,2,4]triazin-2-yl]-amine]
- IC50 (ALK; [1]): 100 to 1000 nM
- IC50 (JAK2; [2]): < 100 nM

Structure (SMILES): COc1cc(-c2ccc3cnc(Nc4ccc(C5CCN(C)CC5)cc4)nn23)ccn1 [Example 676, [7-(2-Methoxy-pyridin-4-yl)-pyrrolo[2,1-f][1,2,4]triazin-2-yl]-[4-(1-methyl-piperidin-4-yl)-phenyl]-amine]
- IC50 (ALK; [1]): 100 to 1000 nM
- IC50 (JAK2; [2]): < 100 nM

Structure (SMILES): c1cc(-c2ccc3cnc(Nc4ccc(N5CCOCC5)cc4)nn23)ccn1 [Example 4, (4-Morpholin-4-yl-phenyl)-(7-pyridin-4-yl-pyrrolo[2,1-f][1,2,4]triazin-2-yl)-amine]
- IC50 (ALK; ALK Kinase Inhibition): 1000 to 10000 nM
- IC50 (JAK2; JAK2 Kinase Inhibition): < 100 nM

Structure (SMILES): CC(=O)Nc1ccccc1-c1ccc2cnc(Nc3ccc(N4CCC(N5CCOCC5)CC4)cc3)nn12 [Example 454, N-(2-{2-[4-(4-Morpholin-4-yl-piperidin-1-yl)-phenylamino]-pyrrolo[2,1-f][1,2,4]triazin-7-yl}-phenyl)-acetamide]
- IC50 (ALK; ALK Kinase Inhibition): 100 to 1000 nM
- IC50 (JAK2; JAK2 Kinase Inhibition): < 100 nM

Structure (SMILES): CN1CCN(CC2CCN(c3ccc(Nc4ncc5ccc(-c6cccc(S(=O)(=O)NC(C)(C)C)c6)n5n4)cc3)CC2)CC1 [Example 589, N-tert-Butyl-3-(2-{4-[4-(4-methyl-piperazin-1-ylmethyl)-piperidin-1-yl]-phenylamino}-pyrrolo[2,1-f][1,2,4]triazin-7-yl)-benzenesulfonamide]
- IC50 (ALK; [1]): < 100 nM
- IC50 (JAK2; [2]): < 100 nM

Structure (SMILES): COc1ccc(-c2ccc3cnc(Nc4cncc(C(N)=O)c4)nn23)cn1 [Example 667, 5-[7-(6-Methoxy-pyridin-3-yl)-pyrrolo[2,1-f][1,2,4]triazin-2-ylamino]-nicotinamide]
- IC50 (ALK; [1]): 100 to 1000 nM
- IC50 (JAK2; [2]): < 100 nM

Structure (SMILES): COc1ccc(-c2ccc3cnc(Nc4ccc5nc(CO)[nH]c5c4)nn23)cn1 [Example 1069, {6-[7-(6-Methoxy-pyridin-3-yl)-pyrrolo[2,1-f][1,2,4]triazin-2-ylamino]-1H-benzoimidazol-2-yl}-methanol]
- IC50 (ALK; [1]): 1000 to 10000 nM
- IC50 (JAK2; [2]): < 100 nM

Structure (SMILES): CN1CCCC1COc1cccc(Nc2ncc3ccc(-c4cnn(C)c4)n3n2)c1 (stereo not shown) [Example 1007, [7-(1-Methyl-1H-pyrazol-4-yl)-pyrrolo[2,1-f][1,2,4]triazin-2-yl]-[3-(1-methyl-pyrrolidin-2-ylmethoxy)-phenyl]-amine]
- IC50 (ALK; [1]): 100 to 1000 nM
- IC50 (JAK2; [2]): < 100 nM

Structure (SMILES): COc1ccc(-c2ccc3cnc(Nc4ccc5c(c4)CCN(CC(N)=O)C5)nn23)cn1 [Example 916, 2-{6-[7-(6-Methoxy-pyridin-3-yl)-pyrrolo[2,1-f][1,2,4]triazin-2-ylamino]-3,4-dihydro-1H-isoquinolin-2-yl}-acetamide]
- IC50 (ALK; [1]): > 10000 nM
- IC50 (JAK2; [2]): < 100 nM

Structure (SMILES): COc1ccc(-c2ccc3cnc(Nc4ccn(CC(=O)N5CCOCC5)n4)nn23)cn1 [Example 1112, 2-{3-[7-(6-Methoxy-pyridin-3-yl)-pyrrolo[2,1-f][1,2,4]triazin-2-ylamino]-pyrazol-1-yl}-1-morpholin-4-yl-ethanone]
- IC50 (ALK; [1]): > 10000 nM
- IC50 (JAK2; [2]): < 100 nM

Structure (SMILES): Cc1cc(-c2ccc(S(C)(=O)=O)cc2)n2nc(Nc3ccc(N4CCOCC4)cc3)ncc12 [Example 107, [7-(4-Methanesulfonyl-phenyl)-5-methyl-pyrrolo[2,1-f][1,2,4]triazin-2-yl]-(4-morpholin-4-yl-phenyl)-amine]
- IC50 (ALK; ALK Kinase Inhibition): 100 to 1000 nM
- IC50 (JAK2; JAK2 Kinase Inhibition): < 100 nM

Structure (SMILES): COc1cc(Nc2ncc3ccc(-c4cccc(S(C)(=O)=O)c4)n3n2)cc(OC)c1OC [Example 185, [7-(3-Methanesulfonyl-phenyl)-pyrrolo[2,1-f][1,2,4]triazin-2-yl]-(3,4,5-trimethoxy-phenyl)-amine]
- IC50 (ALK; ALK Kinase Inhibition): 100 to 1000 nM
- IC50 (JAK2; JAK2 Kinase Inhibition): < 100 nM

Structure (SMILES): CS(=O)(=O)c1ccc(-c2ccc3cnc(Nc4ccc5[nH]c(=O)[nH]c5c4)nn23)cc1 [Example 1303, 5-[7-(4-Methanesulfonyl-phenyl)-pyrrolo[2,1-f][1,2,4]triazin-2-ylamino]-1,3-dihydro-benzimidazol-2-one]
- IC50 (ALK; [1]): 1000 to 10000 nM
- IC50 (JAK2; [2]): < 100 nM

Structure (SMILES): COc1ccc(-c2ccc3cnc(Nc4ccc(C5(C#N)CCN(CC(N)=O)CC5)cc4)nn23)cn1 [Example 1545, 2-(4-Cyano-4-{4-[7-(6-methoxy-pyridin-3-yl)-pyrrolo[2,1-f][1,2,4]triazin-2-ylamino]-phenyl}-piperidin-1-yl)-acetamide]
- IC50 (ALK; ALK Kinase Inhibition): 100 to 1000 nM
- IC50 (JAK2; JAK2 Kinase Inhibition): < 100 nM

Structure (SMILES): CN1CCN(C(=O)c2ccc(Nc3ncc4ccc(-c5cccnc5)n4n3)cc2)CC1 [Example 321, (4-Methyl-piperazin-1-yl)-[4-(7-pyridin-3-yl-pyrrolo[2,1-f][1,2,4]triazin-2-ylamino)-phenyl]-methanone]
- IC50 (ALK; ALK Kinase Inhibition): 100 to 1000 nM
- IC50 (JAK2; JAK2 Kinase Inhibition): < 100 nM

Continued, values first:

- IC50 (ALK; [1]): < 100 nM
- IC50 (JAK2; [2]): < 100 nM
Structure (SMILES): COc1ccc(Cl)cc1-c1ccc2cnc(Nc3ccc(C4CCN(C)CC4)cc3)nn12 [Example 1121, [7-(5-Chloro-2-methoxy-phenyl)-pyrrolo[2,1-f][1,2,4]triazin-2-yl]-[4-(1-methyl-piperidin-4-yl)-phenyl]-amine]

- IC50 (ALK; ALK Kinase Inhibition): 100 to 1000 nM
- IC50 (JAK2; JAK2 Kinase Inhibition): 100 to 1000 nM
Structure (SMILES): CC(C)(C)NS(=O)(=O)c1ccccc1-c1ccc2cnc(Nc3ccc(N4CCOCC4)cc3)nn12 [Example 412]

- IC50 (ALK; ALK Kinase Inhibition): < 100 nM
- IC50 (JAK2; JAK2 Kinase Inhibition): < 100 nM
Structure (SMILES): COc1cc(N2CCN(C)CC2)ccc1Nc1ncc2ccc(-c3cccc(S(C)(=O)=O)c3)n2n1 [Example 76, [7-(3-Methanesulfonyl-phenyl)-pyrrolo[2,1-f][1,2,4]triazin-2-yl]-[2-methoxy-4-(4-methyl-piperazin-1-yl)-phenyl]-amine]

- IC50 (ALK; [1]): < 100 nM
- IC50 (JAK2; [2]): < 100 nM
Structure (SMILES): COc1ccc(Cl)cc1-c1ccc2cnc(Nc3ccc(C4CCN(CC(N)=O)CC4)cc3)nn12 [Example 1024]

- IC50 (ALK; [1]): < 100 nM
- IC50 (JAK2; [2]): < 100 nM
Structure (SMILES): COc1ccc(-c2ccc3cnc(Nc4ccc(C5CCN(CC(N)=O)CC5)cc4)nn23)c(OC)n1 [Example 682, 2-(4-{4-[7-(2,6-Dimethoxy-pyridin-3-yl)-pyrrolo[2,1-f][1,2,4]triazin-2-ylamino]-phenyl}-piperidin-1-yl)-acetamide]

- IC50 (ALK; ALK Kinase Inhibition): < 100 nM
- IC50 (JAK2; JAK2 Kinase Inhibition): < 100 nM
Structure (SMILES): COc1cc(N2CCC(N3CCOCC3)CC2)ccc1Nc1ncc2ccc(-c3ccccc3OC(C)C)n2n1 [Example 1451, [7-(2-Isopropoxy-phenyl)-pyrrolo[2,1-f][1,2,4]triazin-2-yl]-[2-methoxy-4-(4-morpholin-4-yl-piperidin-1-yl)-phenyl]-amine]

- IC50 (ALK; [1]): < 100 nM
- IC50 (JAK2; [2]): 1000 to 10000 nM
Structure (SMILES): COc1cc(C2CCN(C(=O)CN(C)C)CC2)ccc1Nc1ncc2ccc(-c3ccccc3N(C)S(C)(=O)=O)n2n1 [Example 813, N-[2-(2-{4-[1-(2-Dimethylamino-acetyl)-piperidin-4-yl]-2-methoxy-phenylamino}-pyrrolo[2,1-f][1,2,4]triazin-7-yl)-phenyl]-N-methyl-methanesulfonamide]

- IC50 (ALK; [1]): < 100 nM
- IC50 (JAK2; [2]): 1000 to 10000 nM
Structure (SMILES): COc1cc(N2CCN(C[C@H](C)O)CC2)ccc1Nc1ncc2ccc(-c3c(OC)cccc3OC)n2n1 [Example 543, (S)-1-(4-{4-[7-(2,6-Dimethoxy-phenyl)-pyrrolo[2,1-f][1,2,4]triazin-2-ylamino]-3-methoxy-phenyl}-piperazin-1-yl)-propan-2-ol]

- IC50 (ALK; [1]): < 100 nM
- IC50 (JAK2; [2]): 100 to 1000 nM
Structure (SMILES): COc1cc([C@@H]2CCN(CCO)C[C@@H]2O)ccc1Nc1ncc2ccc(-c3ccccc3N(C)S(C)(=O)=O)n2n1 (racemic) [Example 847, (±)-N-[2-(2-{4-[(3R,4S)-3-Hydroxy-1-(2-hydroxy-ethyl)-piperidin-4-yl]-2-methoxy-phenylamino}-pyrrolo[2,1-f][1,2,4]triazin-7-yl)-phenyl]-N-methyl-methanesulfonamide]

- IC50 (ALK; [1]): < 100 nM
- IC50 (JAK2; [2]): < 100 nM
Structure (SMILES): COc1cc(N2CCN(C[C@H](C)O)CC2)ccc1Nc1ncc2ccc(-c3cccc4c3OCCO4)n2n1 [Example 547, (S)-1-(4-{4-[7-(2,3-Dihydro-1,4-benzodioxin-5-yl)-pyrrolo[2,1-f][1,2,4]triazin-2-ylamino]-3-methoxy-phenyl}-piperazin-1-yl)-propan-2-ol]

- IC50 (ALK; [1]): < 100 nM
- IC50 (JAK2; [2]): 100 to 1000 nM
Structure (SMILES): COc1cc(N2CCC(N3CC[C@H](O)C3)CC2)ccc1Nc1ncc2ccc(-c3ccccc3OC)n2n1 [Example 483, (S)-1-(1-{3-Methoxy-4-[7-(2-methoxy-phenyl)-pyrrolo[2,1-f][1,2,4]triazin-2-ylamino]-phenyl}-piperidin-4-yl)-pyrrolidin-3-ol]

- IC50 (ALK; [1]): < 100 nM
- IC50 (JAK2; [2]): 100 to 1000 nM
Structure (SMILES): COc1cc(N2CCC(N3CCCN(CCO)CC3)CC2)ccc1Nc1ncc2ccc(-c3ccccc3N(C)S(C)(=O)=O)n2n1 [Example 803, N-{2-[2-(4-{4-[4-(2-Hydroxy-ethyl)-[1,4]diazepan-1-yl]-piperidin-1-yl}-2-methoxy-phenylamino)-pyrrolo[2,1-f][1,2,4]triazin-7-yl]-phenyl}-N-methyl-methanesulfonamide]

- IC50 (ALK; ALK Kinase Inhibition): 100 to 1000 nM
- IC50 (JAK2; JAK2 Kinase Inhibition): 100 to 1000 nM
Structure (SMILES): Cc1cc2[nH]c(=O)oc2cc1Nc1ncc2ccc(-c3ccccc3N(C)S(C)(=O)=O)n2n1 [Example 1492, N-Methyl-N-{2-[2-(5-methyl-2-oxo-2,3-dihydro-benzoxazol-6-ylamino)-pyrrolo[2,1-f][1,2,4]triazin-7-yl]-phenyl}-methanesulfonamide]

Reference: US8471005B2 (Cephalon, Inc., priority 2008, dated 2013)
